According to patent publication US7250438B2, “Anti-bacterial and anti-cancer spiro beta-lactone/gamma-lactams” (Nereus Pharmaceuticals, Inc., priority 2004, dated 2007):

Experiments:
E. coli - imp = test: MIC, serial micro broth dilution (NCCLS M7-A5); type: cell-based; conditions: Escherichia coli, 18 h
Experimental: (§1) Minimum inhibitory concentrations (MICs) were determined according to the National Committee for Clinical Laboratory Standards (NCCLS) susceptibility test guideline M7-A5 to quantify the anti-microbial activity of the compound of Formula (VI) against both gram-positive and gram-negative bacteria. Ferraro, M. 2001 Methods for Dilution Antimicrobial Susceptibility Tests for Bacteria that Grow Aerobically; Approved Standard (NCCLS), Villanova, which is incorporated herein by reference in its entirety. The serial micro broth dilution method used BBL Mueller-Hinton broth (cation adjusted) except for the […] which was tested in BBL Mueller-Hinton broth II (cation adjusted) with lysed horse blood. The final bacterial inoculum contained approximately 5×10^5 CFU/ml and was run on microtiter plates. The volume of each well was 100 μl and the plates were incubated at 35° C. for 18 hours. The MIC was defined as the lowest drug concentration that prevented visible growth of the bacterium. The compound was active versus several microorganisms, especially gram-positive species.

E. faecalis - Van^s = test: MIC, serial micro broth dilution (NCCLS M7-A5); type: cell-based; conditions: Enterococcus faecalis, Mueller-Hinton broth, 35° C., 18 hours
Experimental: as §1

E. faecium - Van^r = test: MIC, serial micro broth dilution (NCCLS M7-A5); type: cell-based; conditions: Enterococcus faecium, Mueller-Hinton broth, 35° C., 18 hours
Experimental: as §1

[1] = tested on: Staphylococcus aureus - MRSA; test: MIC, serial micro broth dilution (NCCLS M7-A5); type: cell-based; conditions: Mueller-Hinton broth, 35° C., 18 hours
Experimental: as §1

[2] = tested on: Staphylococcus aureus - MSSA; test: MIC, serial micro broth dilution (NCCLS M7-A5); type: cell-based; conditions: Mueller-Hinton broth, 35° C., 18 hours
Experimental: as §1

[3] = tested on: Streptococcus pneumoniae - penicillin resistant; test: MIC, serial micro broth dilution (NCCLS M7-A5); type: cell-based; conditions: Mueller-Hinton broth II with lysed horse blood, 35° C., 18 hours
Experimental: as §1

[4] = tested on: Streptococcus pneumoniae - penicillin sensitive; test: MIC, serial micro broth dilution (NCCLS M7-A5); type: cell-based; conditions: Mueller-Hinton broth II with lysed horse blood, 35° C., 18 hours
Experimental: as §1

B16-F10 cells = test: Growth inhibition of murine melanoma B16-F10 cells (Resazurin); type: cell-based; conditions: Mus musculus, 48 hours of drug exposure
Experimental: B16-F10 (ATCC; CRL-6475) a murine melanoma cell line was maintained in complete Dulbecco's Modification of Eagle's Medium (DMEM) (DMEM supplemented with 10% (v/v) Fetal bovine serum, 2 mM glutamine, 10 mM HEPES and Penicillin/Streptomycin at 100 IU/ml and 100 μg/ml respectively). The cells were cultured in an incubator at 37° C, 5% CO2 and 95% humidified air.
For cell growth inhibition assays, B16-F10 cells were seeded at 1.25×10^3 cells/well in 90 μl complete media into Coming 3904 black-walled, clear-bottom tissue culture plates and the plates were incubated overnight to allow cells to establish and enter log phase growth. 20mM stock solutions of the compound of Formula (VI) were prepared in 100% DMSO. 10× concentrated serial dilutions of the compound of Formula (VI) were prepared in appropriate culture medium. […]
Following 48 hours of drug exposure, 10 μl of 0.2 mg/ml Resazurin (obtained from Sigma-Aldrich Chemical Co.) in Mg^2+, Ca^2+ free phosphate buffered saline was added to each well and the plates were returned to the incubator for 3–6 hours. Since living cells metabolize Resazurin, the fluorescence of the reduction product of Resazurin was measured using a Fusion microplate fluorometer (Packard Bioscience) with λex=535 nm and λem=590 nm filters. […]

[5] = Qualitative solubility of the isolated compound; type: physicochemical; conditions: CHCl3, MeOH, and DMSO

COC(CC(C)C(O)/C=C/C=C/CNC(=O)C(C)(C)C(O)\C(C)=C/C=C\C=C\C(C)=C(/C)[N+](=O)[O-])C1(O)C(C)C(=O)N(C)C12C(=O)OC2C (stereo not drawn) [Formula (VI)]
MIC (E. coli - imp): 12 µg/mL | MIC (E. faecalis - Van^s): 14 µg/mL | MIC (E. faecium - Van^r): 20 µg/mL | MIC [1]: 5 µg/mL | MIC [2]: 4 µg/mL | MIC [3]: 1.5 µg/mL | MIC [4]: 2 µg/mL | EC50 (B16-F10 cells): 9.6 µM | solubility (qualitative) [5]: qualitatively soluble in CHCl3, MeOH, and DMSO
